In the NIST ThermoML archive (doi:10.1021/je400405m):

Experiment: wn = mass fraction of the nth substance listed
Settings: w1 = 0.0516; for surface tension liquid-gas: Maximal bubble pressure; for viscosity / mass density: 101 kPa, Liquid; for viscosity: Capillary tube (Ostwald / Ubbelohde) method; for mass density: Pycnometric method

C1CNCCN1 [piperazine] + O
Settings | mass density [kg/m3] | surface tension liquid-gas [mN/m] | viscosity [mPa·s]
303.15 K | 998.03 | 68.55 | 0.948
313.15 K | 994.71 | 66.97 | 0.75
323.15 K | 990.08 | 65.1 | 0.616
